# From patent US9593148B2, “DPP8 and DPP9 peptide inhibitors” (GEORG-AUGUST-UNIVERSITAT GOTTINGEN STIFTUNG OFFENTLICHEN …, priority 2012, dated 2017)
# Where two headings read alike, the source gives them in different places. No end group written: not given here.
# Key:
# [1] = biological target: T1, DPP9 (Homo sapiens, UniProt Q86TI2); assay: Inhibition of GP-AMC hydrolysis by purified recombinant DPP9 at a single peptide concentration; type: biochemical; details: 25 nM DPP9, 0.2 mM GP-AMC
# T1 construct: made in house; host or cells: Sf9 insect cells (baculovirus)
# Experimental: Accordingly, the peptide is capable of inhibiting the activity of wild-type DPP9 (SEQ ID NO: 6) to a level of 35 to 5% of the activity of wild-type DPP9 (SEQ ID NO: 6) if not inhibited, as determined in an assay using 25 nM purified DPP9, 0.2 mM GP-AMC, and 14 μM of the peptide to be tested, in TB buffer (20 mM Hepes/KOH pH 7.3, 110 mM potassium acetate, 2 mM Mg acetate, 0.5 mM EGTA), supplemented with 0.2% Tween-20, 1 mM dithiothreitol. Release of AMC from GP-AMC is measured using the Appliskan microplate fluorimeter (Thermo Scientific) with 380 nm (excitation) and 480 nm (emission) filters and the Skanit software, and analysed using the Prism software.
# (§1) Kinetics assays: Purified recombinant DPP9 (25 nM) was incubated with varying concentrations of GP-AMC, in TB supplemented with 0.2% Tween-20, 1 mM ditiothreitol. For inhibition assays, inhibitory peptides were added directly to the reaction mixture. For activation by SUMO 0.2 mg/ml BSA, was added to the buffer to prevent non specific binding. DPP9 were incubated with 2.5 μM of either SUMO1, SUMO1 E67A, SUMO2 for 2 hour on ice prior to the assay. Alternatively DPP9 was incubated with 1 μM of RanGAP or RanGAP modified with either SUMO1 or SUMO2 for 2 hours prior to the assay. Fluorescence was measured using the Appliskan microplate fluorimeter (Thermo Scientific) with 380 nm (excitation) and 480 nm (emission) filters and the Skanit software, and analysed using the Prism software. Each experiment was performed at least three times, in replicates of four.
# To improve the inhibition of DPP9, the inventors tested several peptide libraries composed of truncated variants of the EIL peptide (>80% pure, ordered from Genescript). These peptides were incubated with recombinant DPP9 and analysed GP-AMC hydrolysis. AMC release was then compared to samples containing either DPP9 alone, or the EIL peptide.
# [2] = biological target: T1, DPP9; assay: Kinetics assay, Ki for inhibition of DPP9 (GP-AMC hydrolysis); type: biochemical
# Experimental: (§2) Enzyme kinetics and the Ki of DPP8 or DPP9 may be determined as follows: 25 nM purified recombinant enzyme (DPP9 or DPP8) are incubated with varying concentrations of GP-AMC ([…] GP-AMC), in TB buffer (20 mM Hepes/KOH pH 7.3, 110 mM potassium acetate, 2 mM Mg acetate, 0.5 mM EGTA), supplemented with 0.2% Tween-20, 1 mM dithiothreitol. Experiments are performed in triplicates. To measure Ki values, for each set of experiments, inhibitory peptides are added to DPP9 or DPP8. Peptide concentrations tested are in the range between 0.04 to 50 μM. Release of AMC from GP-AMC is measured using the Appliskan microplate fluorimeter (Thermo Scientific) with 380 nm (excitation) and 480 nm (emission) filters and the Skanit software, and analysed using the Prism software.
# (§3) A&B 25 nM purified recombinant (A) DPP9 or (B) DPP8 were incubated with varying concentrations of the EIL peptide (0, 3.3 μM and 6.6 μM) and tested for hydrolysis of GP-AMC (1000, 500, 250, 125, 0 μM). C. 25 nM DPPIV was tested for the hydrolysis of GP-AMC (500, 250, 125, 0 μM) in the presence of 0 or 13 μM EIL peptide. Fluorescence was measured using the Appliskan microplate fluorimeter (Thermo Scientific) with 380 nm (excitation) and 480 nm (emission) filters and the Skanit software, and analysed using the Prism software. Each experiment was performed at least three times, in replicates of four.
# as §1
# [3] = biological target: T2, DPP9-SUMO1 interaction (Homo sapiens, UniProt Q86TI2); assay: Peptide competition of DPP9 binding to SUMO1-immobilized beads (pull down); details: 500 ng recombinant DPP9, peptide 0.1 mg/ml
# T2 construct: made in house; host or cells: DPP9: Sf9 insect cells
# Experimental: Ovalbumin (Ov) coupled beads were used for control. Bound proteins were detected by western blotting using specific antibodies. B. Shown is a pull down assay as in A with recombinant DPP9, DPP8, Uba2 or GST-PIAS3. C. Recombinant DPP9 was incubated with 15 mer peptides of a peptide library covering SUMO1 amino acid sequence. The DPP9-peptide solutions were then incubated with SUMO1-immobilized beads. Following extensive washing steps, bound DPP9 was eluted with sample buffer and detected DPP9-specific antibodies. D. Recombinant DPP8 and DPP9 were incubated with SUMO1-immobilized beads. To elute bound proteins, beads were incubated with either SUMO1-peptide 5 (overlapping SIG) or with SUMO1-peptide 9. […] Interacting DPP9 was detected using a DPP9 specific antibody. […] Interacting proteins were eluted with sample buffer and detected using specific antibodies. […]
# To study the preferential association of DPP8 and DPP9 with SUMO1 but not SUMO2, the inventors aimed to identify the surfaces on SUMO1 involved in these interactions. First the inventors analysed the interaction of DPP9 with SUMO1 mutants in residues which were previously shown via NMR and crystal structures to interact with SIM containing proteins (Song et al, 2004; Hecker et al, 2006; Reverter & Lima, 2005). […] SUMO1-peptides 5 or 9 were then added and the release of bound DPP8 or DPP9 from the SUMO beads was analysed by SDS-PAGE (FIG. 2D). […]
# [4] = system: cytosolic prolyl peptidase activity (HeLa cytosolic fractions); assay: GP-AMC hydrolysis in HeLa cytosolic fractions incubated with peptide; type: biochemical, human
# Experimental: HeLa cytosolic fractions were incubated with 0, 27.7 or 55.6 μM peptide EIL, and immediately tested for hydrolysis of varying concentrations of A. GP-AMC or B. R-AMC. Fluorescence was measured using the Appliskan microplate fluorimeter (Thermo Scientific) with 380 nm (excitation) and 480 nm (emission) filters and the Skanit software, and analysed using the Prism software. Each experiment was performed at least three times, in replicates of four.
# Since the EIL peptide can displace SUMO1 from a DPP9-SUMO1 or a DPP8-SUMO1 complex (FIG. 2D), the inventors tested whether the EIL peptide would inhibit the association-dependent activation of DPP8 and DPP9 by SUMO1 in cell extracts. For this the inventors incubated cytosolic extracts with the EIL peptide and tested for the hydrolysis of GP-AMC (FIG. 8A). […] For control, the inventors also measured the hydrolysis of R-AMC, which is not a substrate for DPP8 or DPP9 (FIG. 8B).
# [5] = biological target: DPPIV (Homo sapiens, UniProt P27487); assay: GP-AMC hydrolysis by DPPIV in the presence of peptide; type: biochemical; details: 25 nM DPPIV, 13 μM peptide
# Experimental: Preferably, the peptide is capable of inhibiting the activity by wild-type DPP9 (SEQ ID NO: 6) to a level of 30 to 5%, 29 to 5%, 28 to 5%, 27 to 5%, 26 to 5%, 25 to 5%, 24 to 5%, 23 to 5%, 22 to 5%, 21 to 5%, 20 to 5%, 19 to 5%, 18 to 5%, 17 to 5%, 16 to 5%, 15 to 5%, 14 to 5%, 13 to 5%, 12 to 5%, 11 to 5%, 10 to 5%, 9 to 5%, 8 to 5%, such as 7.5 to 5% of the activity of wild-type DPP9 (SEQ ID NO: 6) if not inhibited. […] Release of AMC from GP-AMC is measured using the Appliskan microplate fluorimeter (Thermo Scientific) with 380 nm (excitation) and 480 nm (emission) filters and the Skanit software, and analysed using the Prism software.
# as §3
# [6] = biological target: T3, DPP8 (Homo sapiens, UniProt Q6V1X1); assay: Kinetics assay, Ki for inhibition of DPP8 (GP-AMC hydrolysis); type: biochemical
# T3 construct: made in house; host or cells: Sf9 insect cells (baculovirus)
# Experimental: as §2, §3
# [7] = 10 μM peptide, DPP9 alone = 100.3
# [8] = 14 μM peptide, no peptide = 100
# [9] = 25 nM DPP9, 0, 5 or 20 μM peptide, GP-AMC 0-500 μM, read-out: Ki (μM) for inhibition of DPP9
# T1 sequence (Q86TI2 1-892 isoform Q86TI2-2): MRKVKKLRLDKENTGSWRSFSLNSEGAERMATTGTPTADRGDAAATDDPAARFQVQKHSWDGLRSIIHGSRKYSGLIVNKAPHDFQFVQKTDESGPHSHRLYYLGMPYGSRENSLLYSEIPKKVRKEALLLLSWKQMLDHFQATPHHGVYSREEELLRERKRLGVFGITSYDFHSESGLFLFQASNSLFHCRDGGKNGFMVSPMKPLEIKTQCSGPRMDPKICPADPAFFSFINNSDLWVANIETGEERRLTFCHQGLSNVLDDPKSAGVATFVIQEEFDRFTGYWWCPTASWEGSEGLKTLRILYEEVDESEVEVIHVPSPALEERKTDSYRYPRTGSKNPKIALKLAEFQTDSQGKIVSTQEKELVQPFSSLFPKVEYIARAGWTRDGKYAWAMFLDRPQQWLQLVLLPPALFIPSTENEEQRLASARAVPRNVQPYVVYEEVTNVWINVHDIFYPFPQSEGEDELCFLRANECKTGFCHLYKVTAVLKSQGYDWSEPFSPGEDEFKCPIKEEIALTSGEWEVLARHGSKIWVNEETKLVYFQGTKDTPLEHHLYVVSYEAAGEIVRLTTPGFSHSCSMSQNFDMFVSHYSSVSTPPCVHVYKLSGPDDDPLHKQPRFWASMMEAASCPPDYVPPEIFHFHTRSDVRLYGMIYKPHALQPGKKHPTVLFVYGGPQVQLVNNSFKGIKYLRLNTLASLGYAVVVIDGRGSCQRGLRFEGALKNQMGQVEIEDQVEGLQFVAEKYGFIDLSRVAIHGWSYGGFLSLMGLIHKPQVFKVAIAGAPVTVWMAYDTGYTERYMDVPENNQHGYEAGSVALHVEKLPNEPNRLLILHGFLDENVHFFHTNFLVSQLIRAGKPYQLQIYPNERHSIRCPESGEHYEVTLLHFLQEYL
# Chain of DPPIV (P27487 whole entry): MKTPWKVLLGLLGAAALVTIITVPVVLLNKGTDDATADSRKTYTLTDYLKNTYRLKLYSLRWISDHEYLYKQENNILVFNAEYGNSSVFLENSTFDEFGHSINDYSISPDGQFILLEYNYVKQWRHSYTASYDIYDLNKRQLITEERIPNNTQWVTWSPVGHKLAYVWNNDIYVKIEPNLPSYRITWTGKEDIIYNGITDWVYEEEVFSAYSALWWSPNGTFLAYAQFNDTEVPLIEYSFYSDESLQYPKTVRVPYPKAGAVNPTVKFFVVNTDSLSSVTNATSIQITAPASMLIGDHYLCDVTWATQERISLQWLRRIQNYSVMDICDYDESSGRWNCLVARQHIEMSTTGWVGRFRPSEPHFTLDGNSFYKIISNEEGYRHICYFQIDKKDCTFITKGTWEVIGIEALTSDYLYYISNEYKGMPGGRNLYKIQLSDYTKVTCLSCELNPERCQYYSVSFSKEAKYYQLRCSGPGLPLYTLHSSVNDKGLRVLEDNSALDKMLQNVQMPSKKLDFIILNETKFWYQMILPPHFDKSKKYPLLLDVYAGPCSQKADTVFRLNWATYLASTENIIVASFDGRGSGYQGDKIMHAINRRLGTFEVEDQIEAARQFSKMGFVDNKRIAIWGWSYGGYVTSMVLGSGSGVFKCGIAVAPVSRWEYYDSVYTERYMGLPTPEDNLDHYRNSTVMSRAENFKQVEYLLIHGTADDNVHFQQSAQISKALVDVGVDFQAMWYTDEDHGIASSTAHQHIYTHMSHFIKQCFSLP
# T2 sequence (Q86TI2 1-892 isoform Q86TI2-2): as the sequence (Q86TI2 1-892 isoform Q86TI2-2) above
# T3 sequence (Q6V1X1 whole entry): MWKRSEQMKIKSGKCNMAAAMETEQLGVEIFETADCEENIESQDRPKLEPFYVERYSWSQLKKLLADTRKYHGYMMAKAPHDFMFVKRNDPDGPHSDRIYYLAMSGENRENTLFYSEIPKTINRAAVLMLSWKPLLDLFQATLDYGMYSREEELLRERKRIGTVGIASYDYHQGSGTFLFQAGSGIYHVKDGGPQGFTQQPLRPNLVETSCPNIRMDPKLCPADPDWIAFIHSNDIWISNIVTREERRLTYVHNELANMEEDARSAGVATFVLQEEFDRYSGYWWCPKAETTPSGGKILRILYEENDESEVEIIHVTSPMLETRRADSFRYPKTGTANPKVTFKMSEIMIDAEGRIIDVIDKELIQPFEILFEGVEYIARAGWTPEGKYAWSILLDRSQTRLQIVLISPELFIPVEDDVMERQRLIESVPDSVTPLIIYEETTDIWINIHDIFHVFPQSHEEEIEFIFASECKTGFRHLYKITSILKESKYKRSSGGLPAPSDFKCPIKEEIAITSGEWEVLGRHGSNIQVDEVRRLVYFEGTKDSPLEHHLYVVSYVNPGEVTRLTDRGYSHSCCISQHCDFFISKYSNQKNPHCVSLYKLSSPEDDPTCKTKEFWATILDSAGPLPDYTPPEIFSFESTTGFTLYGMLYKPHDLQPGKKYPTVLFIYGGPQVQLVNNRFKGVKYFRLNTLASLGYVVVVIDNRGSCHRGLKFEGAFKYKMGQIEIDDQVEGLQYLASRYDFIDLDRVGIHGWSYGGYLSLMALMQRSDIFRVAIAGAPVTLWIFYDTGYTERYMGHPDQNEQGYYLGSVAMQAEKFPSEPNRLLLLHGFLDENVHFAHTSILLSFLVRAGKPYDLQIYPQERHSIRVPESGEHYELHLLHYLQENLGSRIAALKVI
Substance,"% DPP9 activity (Mean) [1, 7] [%]","% DPP9 activity (Mean) [1, 8] [%]",other results
AAASLRFLYEG (SLRFLYEGAAA; EIL variant peptide),91.15,,
Acet-SLRFLFEG,90.74,,
FEGQRIADNH (SLRFLFEGQRIAD; EIL peptide variant),,97.12,
FLFEGQRI (EIL peptide variant),,48.41,
H-SLRFLFAGQRIADNH,,5.093,"Ki [2, 9]: 1.43 µM"
H-SLRFLFEG,24.08,,"Ki [2, 9]: 2 µM"
H-SLRFLFEGQRIADNH,,27.45,"binding of DPP9 to the SUMO1 beads after pre-incubation with peptide [3]: strongly reduced; degradation of GP-AMC in cytosolic extracts ([4]; HeLa cytosolic fractions, 0, 27.7 or 55.6 μM peptide): strongly reduced; inhibition of DPPIV [5]: not inhibited"
H-SLRFLYEGQRIADNH,,13.06,"Ki [2, 9]: 2.56 µM"
LFEGQR (FLIEGQRI; EIL peptide variant),,51,
LFEGQRIADNH (EIL peptide variant),,67.77,
RRRRSLRFLFEG (RRRRSLRFLYAG; EIL variant peptide),92.2,,
SLRFLFEAQRIADNH (LRFLFEGQRIADNH; EIL peptide variant),,19.46,
SLRFLFEGQ (LRFLFEGQRIADN; EIL peptide variant),,16.43,
SLRFLFEGQR (EIL peptide variant),,24.27,
SLRFLFEGQRIADNH,,,"Ki [2, 9]: 7.32 µM; Ki ([2]; read-out: Ki for DPP9): 7.4 µM; Ki [6]: 8.4 µM; stability of the peptide in cytosolic extracts ([4]; HeLa cytosolic extracts): stable in cytosolic extracts"
TLRFLFEG (SLRFLFEG; EIL variant peptide),29.2,,
